The values that follow come from paper PMC7765388, “Synthesis and In Vitro Antiprotozoan Evaluation of 4-/8-Aminoquinoline-based Lactams and Tetrazoles” (Molecules, 2020).

Series [1] concerns P. falciparum K1 strain. Kind of series: In vitro antiplasmodium activity, 3H-hypoxanthine incorporation assay. In kind it is cell-based, Plasmodium falciparum. Conditions: for IC50: read-out: P. falciparum K1 IC50; for Selectivity Indices (SI) [(IC50 L6 Cell Line)/(IC50 K1 strain)]: L6 vs K1. As for the experimental part: (§1) Antiplasmodial activity on the K1 strain, antitrypanosomal activity on T. b. brucei rhodesiense STIB900 and cytotoxicity on the L6 mammalian cell-line were all carried out at the Swiss Tropical and Public Health Institute (STPH), Switzerland as follows:
In vitro activity against erythrocytic stages of P. falciparum was determined using a ^3H-hypoxanthine incorporation assay, using the chloroquine and pyrimethamine-resistant K1 strain that originates from Thailand and the standard drug chloroquine (Sigma C6628). Compounds were dissolved in DMSO at 10 mg/mL and added to parasite cultures incubated in RPMI 1640 medium without hypoxanthine, supplemented with HEPES (5.94 g/L), NaHCO3 (2.1 g/L), neomycin (100 U/mL), Albumax^R (5 g/L) and washed human red cells A^+ at 2.5% hematocrit (0.3% parasitemia). Serial drug dilutions of eleven three-fold dilution steps covering a range from 100 to 0.002 μg/mL were prepared. The 96-well plates were incubated in a humidified atmosphere at 37 °C; 4% CO2, 3% O2, 93% N2. After 48 h, 50 μL of ^3H-hypoxanthine (= 0.5 μCi) was added to each well of the plate. The test compounds were tested in triplicate ad parasite growth compared to control or blank well. The plates were incubated for a further 24 h under the same conditions. The plates were then harvested with a Betaplate™ cell harvester (Wallac, Zurich, Switzerland), and the red blood cells transferred onto a glass fiber filter then washed with distilled water. The dried filters were inserted into a plastic foil with 10 mL of scintillation fluid and counted in a Betaplate™ liquid scintillation counter (Wallac, Zurich, Switzerland). IC50 values were calculated from sigmoidal inhibition curves by linear regression using Microsoft Excel.

Series [2] has as its system Trypanosoma brucei rhodesiense STIB900. Kind of series: In vitro antitrypanosomal activity, alamarBlue assay. In kind it is cell-based. Conditions: STIB900 bloodstream forms, 70 h + 2-4 h alamarBlue, read-out: T. b. brucie T. b. rhod IC50. As for the experimental part:
as §1
This stock was isolated in 1982 from a human patient in Tanzania and, after several mouse passages, was cloned and adapted to axenic culture conditions. Minimum essential medium (50 µL) supplemented with 25 mM HEPES, 1 g/L additional glucose, 1% MEM non-essential amino acids (100×), 0.2 mM 2-mercaptoethanol, 1 mM Na-pyruvate and 15% heat-inactivated horse serum was added to each well of a 96-well microtiter plate. Serial drug dilutions of eleven three-fold dilution steps covering a range from 100 to 0.002 μg/mL were prepared. Then, 4 × 10^3 bloodstream forms of T. b. rhodesiense STIB 900 in 50 µL was added to each well and the plate incubated at 37 °C under a 5% CO2 atmosphere for 70 h. 10 µL alamarBlue (resazurin, 12.5 mg in 100 mL double-distilled water) was then added to each well and incubation continued for a further 2–4 h. Then the plates were read with a Spectramax Gemini XS microplate fluorometer (Molecular Devices Cooperation, Sunnyvale, CA, USA) using an excitation wavelength of 536 nm and an emission wavelength of 588 nm. The test compounds were tested in triplicate, and their IC50 values were calculated by linear regression from the sigmoidal dose inhibition curves using Softmax Pro software (Molecular Devices Cooperation, Sunnyvale, CA, USA).

Series [3] is described as follows: Aqueous kinetic solubility. The format is physicochemical. As for the experimental part: A 10 mM stock of the compound was diluted in DMSO to give standard solutions at 220 µM, 100 µM and 10 µM in a 96 well plate as described previously. The 10 mM stock was then spiked 1:50 in phosphate-buffered saline pH 7.0 to give a final DMSO concentration of 2%. Both the standard and sample solutions were plated in triplicate. After shaking for 2 h at 25 °C, the solutions were filtered and analyzed on an Agilent 1200 series HPLC with DAD detection. The solubility of the test compounds was determined by comparing the peak area of the sample solutions to that of the standard solutions.

The nature of series [4]: In vitro cytotoxicity with L-6 cells, alamarBlue assay. The format is cell-based. The conditions noted are these: rat, L6 cells, 70 h + 2 h alamarBlue, read-out: Cytotoxicity L6 Cell Lines IC50. The method, then: as §1
Assays were performed in triplicate in 96-well microtiter plates, each well containing 100 μL of RPMI 1640 medium supplemented with 1% L-glutamine (200 mM) and 10% fetal bovine serum, and 4000 L-6 cells (a primary cell line derived from rat skeletal myoblasts). Serial drug dilutions of eleven three-fold dilution steps covering a range from 100 to 0.002 μg/mL were prepared. After 70 h of incubation, the plates were inspected under an inverted microscope to assure the growth of the controls and sterile conditions. 10 μL of alamarBlue was then added to each well, and the plates incubated for another 2 h. Then the plates were read with a Spectramax Gemini XS microplate fluorometer (Molecular Devices Cooperation, Sunnyvale, CA, USA) using an excitation wavelength of 536 nm and an emission wavelength of 588 nm. The IC50 values were calculated by linear regression from the sigmoidal dose inhibition curves using Softmax Pro software (Molecular Devices Cooperation, Sunnyvale, CA, USA).
Background: Resazurin is reduced to fluorescent resorufin, in cell work by metabolically active cells.

The mark [5] stands for this setting: multidrug-resistant (chloroquine and pyrimethamine-resistant) K1 strain, erythrocytic stages, 72 h.
Where [6] appears, read: Plasmodium falciparum, K1, 72 h.
The mark [7] stands for this setting: Plasmodium falciparum, multidrug-resistant (chloroquine and pyrimethamine-resistant) K1 strain, erythrocytic stages, 72 h.
Setting [8] is: L-6 cells (rat skeletal myoblasts).
[9] abbreviates: aqueous buffer, kinetic from dmso stock, phosphate-buffered saline pH 7.0, 2% DMSO, 2 h at 25 °C.

Where two headings read alike, the source gives them in different places.

“1-[2-(7-Chloroquinolin-4-ylamino)ethyl]-3-methoxy-4-(4-methoxyphenyl)azetidin-2-one [Compound 4b]”: the figures for the IC50 in series [1] (setting [5]) and in series [2] were 0.62 µM and 52.9 µM, respectively.

In the case of “1-[2-(7-Chloroquinolin-4-ylamino)ethyl]-3-methoxy-4-p-tolylazetidin-2-one [Compound 4c]”, the figures for the IC50 in series [1] (setting [5]) and in series [2] were 0.58 µM and 52.5 µM, respectively.

Take “1-[2-(7-Chloroquinolin-4-ylamino)ethyl]-4-(4-chlorophenyl)-3-methoxyazetidin-2-one [Compound 4e]”: the IC50 in series [1] (setting [5]) turned out to be 0.3 µM; in series [2] it was 7.01 µM. For the same compound, the solubility (kinetic) at 2 h in series [3] (pH 7) is listed as more than 200 µM.

`CCN(CC)CCCC(C)Nc1ccnc2cc(Cl)ccc12` (stereo not shown) [Chloroquine, reference compound]: the IC50 in series [1] (setting [6]) amounted to 0.22 µM.

Take `COC1C(=O)N(CCNc2ccnc3cc(Cl)ccc23)C1c1ccccc1` (stereo not shown) [Compound 4a, 1-[2-(7-Chloroquinolin-4-ylamino)ethyl]-3-methoxy-4-phenylazetidin-2-one]: in series [1], the “Selectivity Indices (SI) [(IC50 L6 Cell Line)/(IC50 K1 strain)]” value (“Selectivity Indices (SI)” for short) stood at 211. Moreover, the IC50 was determined as 0.47 µM in series [1] (setting [7]) and 53.2 µM in series [2] (Trypanosoma brucei). Moreover, the IC50 at 72 h in series [4] (setting [8]) came out at 98.5 µM. Further, in series [3] (setting [9]), the kinetic solubility at 2 h is more than 200 µM.

On to `COC1C(=O)N(CCNc2ccnc3cc(Cl)ccc23)C1c1ccc(Cl)c(Cl)c1` (stereo not shown) [Compound 4d, 1-[2-(7-Chloroquinolin-4-ylamino)ethyl]-4-(3,4-dichlorophenyl)-3-methoxyazetidin-2-one], for which the “Selectivity Indices (SI)” value in series [1] is 43. For the same compound, the IC50 in series [1] (setting [7]) came out at 0.2 µM; in series [2] (Trypanosoma brucei), 19 µM. For the same compound, the IC50 at 72 h in series [4] (setting [8]) was determined as 8.54 µM.

As for `COC1C(=O)N(CCCNc2ccnc3cc(Cl)ccc23)C1c1ccccc1` (stereo not shown) [Compound 4f, 1-[3-(7-Chloroquinolin-4-ylamino)propyl]-3-methoxy-4-phenylazetidin-2-one], the “Selectivity Indices (SI)” value in series [1] is given as 25. The half-inhibitory concentration (IC50) worked out at 0.57 µM in series [1] (setting [7]) and 16.1 µM in series [2] (Trypanosoma brucei). For the same compound, the IC50 at 72 h in series [4] (setting [8]) came to 14.4 µM.

On to `COC1C(=O)N(CCCCNc2ccnc3cc(Cl)ccc23)C1c1ccccc1` (stereo not shown) [Compound 4g, 1-[4-(7-Chloroquinolin-4-ylamino)butyl]-3-methoxy-4-phenylazetidin-2-one], for which, in series [1], the “Selectivity Indices (SI)” value is recorded as 9. For the same compound, the IC50 turned out to be 0.31 µM in series [1] (setting [7]) and 20 µM in series [2] (Trypanosoma brucei). The IC50 at 72 h in series [4] (setting [8]) was determined as 2.87 µM. Also, the kinetic solubility at 2 h in series [3] (setting [9]) is more than 200 µM.

In the case of `COc1cccc(C(NCCCC(C)Nc2cc(OC)cc3cccnc23)c2nnnn2C(C)(C)C)c1` (stereo not shown) [Compound 6b], the “Selectivity Indices (SI)” value in series [1] was found to be 38. For the same compound, the IC50 in series [1] (setting [7]) is 1.98 µM; in series [2] (Trypanosoma brucei), 14.2 µM. Further, the IC50 at 72 h in series [4] (setting [8]) is 75.5 µM.

Take `COc1cc([C@@H]2c3cc4c(cc3[C@H](O)[C@H]3COC(=O)[C@H]23)OCO4)cc(OC)c1OC` [Podophyllotoxin, reference compound]: the IC50 at 72 h in series [4] stood at 0.0193 µM.

For `COc1cc(NC(C)CCCN)c2ncccc2c1` (stereo not shown) [Primaquine, reference compound], the IC50 in series [1] (setting [6]) is 0.64 µM.

In the case of “N-{5-[(1-tert-butyl-1H-tetrazol-5-yl)(3,4-dichlorophenyl)methylamino]pentan-2-yl}-6-methoxyquinolin-8-amine [Compound 6d]”, the IC50 in series [1] (setting [5]) is 1.31 µM; in series [2] it was 18.3 µM. Moreover, the kinetic solubility at 2 h in series [3] (pH 7) is less than 5 µM.

As for “N-{5-[(1-tert-butyl-1H-tetrazol-5-yl)(4-chlorophenyl)methylamino]pentan-2-yl}-6-methoxyquinolin-8-amine [Compound 6e]”, the IC50 in series [1] (setting [5]) was determined as 1.8 µM; in series [2], 21.4 µM. The same compound had a kinetic solubility at 2 h in series [3] (pH 7) of less than 15 µM.

On to “N-{5-[(1-tert-butyl-1H-tetrazol-5-yl)(p-tolyl)methylamino]pentan-2-yl}-6-methoxyquinolin-8-amine [Compound 6c]”, for which the IC50 in series [1] (setting [5]) amounted to 1.57 µM; in series [2], 18.5 µM. The compound further gave a kinetic solubility at 2 h in series [3] (pH 7) of less than 5 µM.

As for “N-{5-[(1-tert-butyl-1H-tetrazol-5-yl)(phenyl)methylamino]pentan-2-yl}-6-methoxyquinolin-8-amine [Compound 6a]”, the figures for the IC50 in series [1] (setting [5]) and in series [2] were 2.47 µM and 18.1 µM, respectively.

As a reminder, the IC50 is the concentration that inhibits the measured activity by half. By solubility (kinetic) is commonly meant the concentration staying in solution when a stock, usually in DMSO, is diluted into the medium.
